These results are taken from patent publication US9221784B2, “Benzo[1,3]dioxine derivatives and their use as LPAR5 antagonists” (SANOFI, priority 2012, dated 2015).

The experiment concerns the target LPA receptor LPAR5 (Homo sapiens, UniProt Q9H1C0). Briefly: FLIPR assay, intracellular Ca2+ release in human mast cell line HMC-1. In kind it is cell-based. The arrangement: two cell lines were used with high LPAR5 expression; endogenous in cells; host or cells: HMC-1 human mast cell line. Particulars: human mast cell line HMC-1, LPA-stimulated Ca2+ release, test compounds added 10 minutes prior LPA. From the text:
B) Use of the Fluorometric Imaging Plate Reader (FLIPR) Assay for the Determination of Intracellular Ca^2+ Release in Human Mast Cell Line HMC-1 and the Murine Microglia Cell Line BV-2
The ability of the compounds of the formula I to inhibit or bind the LPA receptor LPAR5 can be assessed by determining the intracellular Ca^2+ release in human or animal cells. For the analysis of activating potential of LPA and the inhibitory effects of compounds of the formula I two cell lines were used with high LPAR5 expression, the human mast cell line HMC-1 and the murine microglia cell line BV-2 (Figures 1 and 2). For the FLIPR assay using human mast cells in a 96-well-format, HMC-1 suspension cells from flask culture were harvested, resuspended and counted. 14×10^6 HMC-1 cells were transferred into a new 50 ml tube, centrifuged for 3 minutes at 540×g. The resulting cell pellet at the bottom of the tube was resuspended with 15 ml loading buffer (loading buffer contained HBSS buffer (pH 7.4), 0.1% BSA (bovine serum albumin), 2 μM FLUO-4 dye; HBSS buffer (pH 7.4) contained 1×HBSS, 20 mM HEPES, 0.01% Pluronic F-127, 2.5 mM Probenicid).
Cells in loading buffer were incubated for 45-60 minutes at 37° C. After incubation cells were centrifuged for 3 minutes at 540×g and resuspended with 21 ml of HBSS buffer (pH 7.4). Each well of a poly-D-lysine coated 96-well-plate was filled with 150 μl cell solution, an equivalent of 100 000 cells/well. The 96-well-plate was centrifuged for 2 minutes at 100×g (without brake) prior a recovery time of 30 minutes at 37° C. After this procedure cells were stimulated with LPA (in HBSS pH 7.4 and 0.1% BSA) to determine the EC50 of LPA in HMC-1 cells. For the determination of the inhibitory effect of compounds of the formula I, test compounds were added to the cells in the 96-well-plate 10 minutes prior the addition of LPA. Results of the assay are expressed as % activation, and are calculated using maximum peak of activation (Amax). The IC50 data of the above described FLIPR assay using human mast cell line HMC-1 for exemplary compounds of the present invention are shown in Table 2. Adherent BV-2 cells were seeded onto poly-D-lysine coated 96-well-plates (100000 cells/well) the day before performing the FLIPR assay. The density of the cells in the 96-well-plate at the day of the FLIPR assay should be 90%. After aspiration of the culture media, BV-2 cells were incubated for 30 minutes at 37° C. with loading buffer and recovered in 150 μl HBSS buffer for 30 minutes at 37° C. After this procedure cells were stimulated with LPA (in HBSS pH 7.4 and 0.1% BSA) to determine the EC50 of LPA in BV-2 cells. For the determination of the inhibitory effect of compounds of the formula I, test compounds were added to the cells in the 96-well-plate 10 minutes prior the addition of LPA. The IC50 data of the above described FLIPR assay using the murine microglia cell line BV-2 for exemplary compounds of the present invention are shown in Table 3.

pIC50: −log10 of the molar value.

LPA receptor LPAR5, sequence (Q9H1C0 whole entry): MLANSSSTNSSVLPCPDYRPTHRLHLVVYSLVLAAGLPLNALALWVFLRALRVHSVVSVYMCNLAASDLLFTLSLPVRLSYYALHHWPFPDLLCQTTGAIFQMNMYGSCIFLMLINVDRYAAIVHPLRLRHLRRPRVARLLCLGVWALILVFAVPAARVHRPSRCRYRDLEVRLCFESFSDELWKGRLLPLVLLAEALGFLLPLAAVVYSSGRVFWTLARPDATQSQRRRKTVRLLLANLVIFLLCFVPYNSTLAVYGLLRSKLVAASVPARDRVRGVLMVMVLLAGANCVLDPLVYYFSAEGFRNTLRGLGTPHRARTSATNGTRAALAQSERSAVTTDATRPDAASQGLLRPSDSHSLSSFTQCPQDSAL

With `O=C(O)C1Oc2cc(-n3cccc3)ccc2C(C2CCCCC2)(C2CCCCC2)O1` (stereo not drawn) [Example 2, 4,4-Dicyclohexyl-7-pyrrol-1-yl-4H-benzo[1,3]dioxine-2-carboxylic acid], the pIC50 was 5.47.
As for `COc1cc(OC)c2c(c1)OC(C(=O)O)OC2(C1CCCCC1)C1CCCCC1` (stereo not drawn) [Example 7, 4,4-Dicyclohexyl-5,7-dimethoxy-4H-benzo[1,3]dioxine-2-carboxylic acid], the figure is 5.36; as for `O=C(O)C1Oc2ccc(Oc3ccc(Cl)cc3)cc2C(C2CCCCC2)(C2CCCCC2)O1` (stereo not drawn) [Example 22, 6-(4-Chloro-phenoxy)-4,4-dicyclohexyl-4H-benzo[1,3]dioxine-2-carboxylic acid], 5.59.
Next, `O=C(c1ccc(Cl)cc1)c1ccc2c(c1)C(C1CCCCC1)(C1CCCCC1)OC(C(=O)O)O2` (stereo not drawn) [Example 26, 6-(4-Chloro-benzoyl)-4,4-dicyclohexyl-4H-benzo[1,3]dioxine-2-carboxylic acid]: 5.47.
As for `CCCCOc1ccc2c(c1)OC(C(=O)O)OC2(C1CCCCC1)C1CCCCC1` (stereo not drawn) [Example 31, 7-Butoxy-4,4-dicyclohexyl-4H-benzo[1,3]dioxine-2-carboxylic acid], the figure is 5.28; as for `O=C(O)C1Oc2c(Cl)cc(Cl)cc2C(C2CCCCC2)(C2CCCCC2)O1` (stereo not drawn) [Example 32, 6,8-Dichloro-4,4-dicyclohexyl-4H-benzo[1,3]dioxine-2-carboxylic acid], 5.46.
With `O=C(O)C1Oc2ccc3ccccc3c2C(C2CCCCC2)(C2CCCCC2)O1` (stereo not drawn) [Example 33, 1,1-Dicyclohexyl-1H-naphtho[2,1-d][1,3]dioxine-3-carboxylic acid], the pIC50 was 5.48.
As for `O=C(O)C1Oc2ccc(-c3ccccc3)cc2C(C2CCCCC2)(C2CCCCC2)O1` (stereo not drawn) [Example 35, 4,4-Dicyclohexyl-6-phenyl-4H-benzo[1,3]dioxine-2-carboxylic acid], the figure is 5.42; as for `Cc1cc2c(cc1Cl)C(C1CCCCC1)(C1CCCCC1)OC(C(=O)O)O2` (stereo not drawn) [Example 43, 6-Chloro-4,4-dicyclohexyl-7-methyl-4H-benzo[1,3]dioxine-2-carboxylic acid], 5.48.
As for `O=C(O)C1Oc2ccc3c(c2C(C2CCCCC2)(C2CCCCC2)O1)CCCC3` (stereo not drawn) [Example 45, 1,1-Dicyclohexyl-7,8,9,10-tetrahydro-1H-naphtho[2,1-d][1,3]dioxine-3-carboxylic acid], the figure is 5.51; as for `O=C(O)C1Oc2ccc(Br)cc2C(C2CCCCC2)(C2CCCCC2)O1` (stereo not drawn) [Example 50, 6-Bromo-4,4-dicyclohexyl-4H-benzo[1,3]dioxine-2-carboxylic acid], 5.60.
Next, `O=C(O)C1Oc2ccc(Cl)cc2C(C2CCCCCC2)(C2CCCCCC2)O1` (stereo not drawn) [Example 55, 6-Chloro-4,4-dicycloheptyl-4H-benzo[1,3]dioxine-2-carboxylic acid]: 5.62; `Clc1ccc2c(c1)C(C1CCCCC1)(C1CCCCC1)OC(c1nnn[nH]1)O2` (stereo not drawn) [Example 60, 5-(6-Chloro-4,4-dicyclohexyl-4H-benzo[1,3]dioxin-2-yl)-1H-tetrazole]: 5.44; `O=c1[nH]c(C2Oc3ccc(Cl)cc3C(C3CCCCC3)(C3CCCCC3)O2)no1` (stereo not drawn) [Example 61, 3-(6-Chloro-4,4-dicyclohexyl-4H-benzo[1,3]dioxin-2-yl)-4H-[1,2,4]oxadiazol-5-one]: 5.49.
`O=c1[nH]nc(C2Oc3ccc(Cl)cc3C(C3CCCCC3)(C3CCCCC3)O2)o1` (stereo not drawn) [Example 63, 5-(6-Chloro-4,4-dicyclohexyl-4H-benzo[1,3]dioxin-2-yl)-3H-[1,3,4]oxadiazol-2-one] showed a pIC50 of 5.11.

Usually pIC50 stands for the IC50 on a negative log10 scale, so that one unit is a factor of ten. Read a high pIC50 as a low IC50.
